Our source for the EC50 values is patent US12304899B2, “Factor XI activation inhibitors” (Merck Sharp & Dohme LLC, priority 2019, dated 2025).

T1 sequence (P03951 19-625): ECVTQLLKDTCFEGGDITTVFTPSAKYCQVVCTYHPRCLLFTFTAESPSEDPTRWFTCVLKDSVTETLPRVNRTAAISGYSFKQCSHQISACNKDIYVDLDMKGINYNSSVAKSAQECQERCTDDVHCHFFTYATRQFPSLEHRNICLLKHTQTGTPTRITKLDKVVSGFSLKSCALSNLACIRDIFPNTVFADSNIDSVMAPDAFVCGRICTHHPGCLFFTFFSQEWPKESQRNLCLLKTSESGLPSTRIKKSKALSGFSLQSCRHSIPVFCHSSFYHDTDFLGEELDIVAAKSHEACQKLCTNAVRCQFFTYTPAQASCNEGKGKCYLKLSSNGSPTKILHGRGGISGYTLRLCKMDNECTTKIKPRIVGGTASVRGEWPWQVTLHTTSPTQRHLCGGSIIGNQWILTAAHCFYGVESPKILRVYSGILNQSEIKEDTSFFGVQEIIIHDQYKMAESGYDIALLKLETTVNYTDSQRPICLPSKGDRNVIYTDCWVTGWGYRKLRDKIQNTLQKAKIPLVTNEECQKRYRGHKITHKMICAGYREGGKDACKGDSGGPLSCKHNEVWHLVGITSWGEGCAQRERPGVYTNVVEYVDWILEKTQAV

This assay addresses T1, Human coagulation factor (F)XI (Homo sapiens, UniProt P03951).
T1 construct: purchased Haematologic Technologies Inc. (FXI); Enzyme Research Laboratories (FXIIa) HCXI-150 (FXI); HFXIIa (FXIIa)
Kind of assay: Inhibition of FXIIa mediated activation of FXI (activation of human Factor XI to XIa by human Factor α-XIIa). The format is biochemical. The following applies: human FXI pre-incubated with compound 30 min at 22° C., activation by human FXIIa 60 min, z-GPR-AFC substrate fluorescence, 4 parameter logistic fit; read-out: Inhibition of FXIIa meditated activation of FXI. As for the experimental part: Inhibition of FXIIa Mediated Activation of FXI
Activation of Human Factor XI to XIa by Human Factor α-XIIa
The assay was performed in 50 mM HEPES, 150 mM NaCl, 5 mM CaCl2, 0.1% PEG-8000, pH 7.4 buffer in black, flat-bottom, polystyrene microplates (Corning, Cat #3573). Serial dilutions (10-point, 3.333-fold) of the test compounds delivered as 10 mM DMSO stocks were prepared in the Labcyte Echo-qualified PP 384 well microplates (Labcyte, Cat #P-05525). Human coagulation factor (F)XI (Haematologic Technologies Inc., Cat #HCXI-150, concentration 46 nM, 19.5 uL) was pre-incubated with 0.5 uL of the test compounds for 30 min at 22° C. The activation was initiated by addition of 10 uL of human coagulation factor (F)XIIa (Enzyme Research Laboratories, Cat #HFXIIa, concentration 30 nM) and the reaction proceeded for 60 min at 22° C., after which it was quenched by addition of a selective inhibitor of FXIIa (Compound 54 in International Patent Publication WO2018093695) concentration 600 uM in DMSO, 1 uL). 10 min after the quench, 29 uL of z-GPR-AFC substrate (Sigma, Cat #C0980-10 MG, concentration 200 uM) was added into each well and the detection reaction proceeded for 60 min at 22° C. Fluorescence at 405/510 nm was measured in end-point mode using an Envision plate-reader (Perkin Elmer). IDBS Activity Base XE (ABase) analysis using 4 parameter logistic fit was performed to determine Minimum, Maximum, EC50, and Slope Factor for each compound.
As for `O=C(c1cc(C(=O)N2CCCCC2)c2cc(OCc3ccc4snnc4c3)ccc2n1)N1CCC(n2cccn2)CC1` [Example 7, (4-(1H-pyrazol-1-yl)piperidin-1-yl)(6-(benzo[d][1,2,3]thiadiazol-5-ylmethoxy)-4-(piperidine-1-carbonyl)quinolin-2-yl)methanone], the EC50 was 19.5 nM. For `CS(=O)(=O)N1CCN(C(=O)c2cc(C(=O)N3CCCCC3)c3cc(OCc4nc5ccccc5s4)ccc3n2)CC1` [Example 68, (6-(benzo[d]thiazol-2-yl-methoxy)-2-(4-(methyl-sulfonyl)piperazine-1-carbonyl)quinolin-4-yl)-(piperidin-1-yl)methanone] the value was 19.1 nM. For `Cc1c(COc2ccc3nc(C(=O)N4CCC(C)(O)C4)cc(C(=O)N4CCCCC4)c3c2)ccc2c1COC2=O` (single isomer, unassigned) [Example 5a, 5-(((2-(3-hydroxy-3-methylpyrrolidine-1-carbonyl)-4-(piperidine-1-carbonyl)quinolin-6-yl)oxy)methyl)-4-methylisobenzofuran-1(3H)-one] the value was 31.8 nM. The figure for `O=C(c1cc(C(=O)N2CCCCC2)c2cc(OCc3nc4ccccc4s3)ccc2n1)N1CCC(n2cccn2)CC1` [Example 26, (4-(1H-pyrazol-1-yl)piperidin-1-yl)(6-(benzo[d]thiazol-2-ylmethoxy)-4-(piperidine-1-carbonyl)quinolin-2-yl) methanone] is 28.9 nM; for `Cc1c(COc2ccc3nc(C(=O)N4CCC(C#N)(c5ccccc5)CC4)cc(C(=O)N(C)C)c3c2)ccc2c1COC2=O` [Example 3, 2-(4-cyano-4-phenylpiperidine-1-carbonyl)-N,N-dimethyl-6-((4-methyl-1-oxo-1,3-dihydroisobenzofuran-5-yl)methoxy)quinoline-4-carboxamide] it is 39.6 nM; for `N#Cc1ccc(COc2ccc3nc(C(=O)N4CCC(C#N)(c5ccccc5)CC4)cc(C(=O)N4CCCCC4)c3c2)cc1` [Example 31, 1-(6-((4-cyanobenzyl)oxy)-4-(piperidine-1-carbonyl)quin-oline-2-carbonyl)-4-phenyl-piperidine-4-carbonitrile] it is 24.9 nM. As for `COc1cccc(COc2ccc3nc(C(=O)N4CCC(C#N)(c5ccccc5)CC4)cc(C(=O)N4CCCCC4)c3c2)c1` [Example 41, 1-(6-((3-methoxybenzyl)oxy)-4-(piperidine-1-carbonyl)quin-oline-2-carbonyl)-4-phenyl-piperidine-4-carbonitrile], the EC50 is 30.5 nM.

`Cc1c(COc2ccc3nc(C(=O)N4CCC(C)(O)C4)cc(C(=O)N4CCCCC4)c3c2)ccc2c1COC2=O` (single isomer, unassigned) [Example 5b, 5-(((2-(3-hydroxy-3-methylpyrrolidine-1-carbonyl)-4-(piperidine-1-carbonyl)quinolin-6-yl)oxy)methyl)-4-methylisobenzofuran-1(3H)-one]: the EC50 came out at 38.8 nM. As to `N#CC1(c2ccccc2)CCN(C(=O)c2cc(C(=O)N3CCCCC3)c3cc(OCCCn4cccc4)ccc3n2)CC1` [Example 46, 1-(6-(3-(1H-pyrrol-1-yl)-propoxy)-4-(piperidine-1-car-bonyl)quinoline-2-carbonyl)-4-phenylpiperidine-4-carbonitrile], the EC50 came to 33.7 nM. The figure for `CC(=O)NC1CC2(CCN(C(=O)c3cc(C(=O)N4CCCCC4)c4cc(OCc5nc6ccccc6s5)ccc4n3)CC2)C1` [Example 73, N-(7-(6-(benzo[d]thiazol-2-ylmethoxy)-4-(piperi-dine-1-carbonyl)quinoline-2-carbonyl)-7-azaspiro-[3.5]nonan-2-yl)acetamide] is 38.5 nM.

As to `O=C(c1cc(C(=O)N2CCCCC2)c2cc(OCCCc3cccnc3)ccc2n1)N1CCC(n2cccn2)CC1` [Example 8, (4-(1H-pyrazol-1-yl)piperidin-1-yl)(4-(piperidine-1-carbon-yl)-6-(3-(pyridin-3-yl)pro-poxy)quinolin-2-yl)methanone], the EC50 was found to be 18.8 nM. Take `N#Cc1ccccc1COc1ccc2nc(C(=O)N3CCC(C#N)(c4ccccc4)CC3)cc(C(=O)N3CCCCC3)c2c1` [Example 30, 1-(6-((2-cyanobenzyl)oxy)-4-(piperidine-1-carbonyl)quin-oline-2-carbonyl)-4-phenyl-piperidine-4-carbonitrile]: the EC50 stood at 30.1 nM.

Take `COc1ccc(COc2ccc3nc(C(=O)N4CCC(C#N)(c5ccccc5)CC4)cc(C(=O)N4CCCCC4)c3c2)c(C(F)(F)F)c1` [Example 42, 1-(6-((4-methoxy-2-(tri-fluoromethyl)benzyl)oxy)-4-(piperidine-1-carbonyl)quin-oline-2-carbonyl)-4-phenyl-piperidine-4-carbonitrile]: the EC50 stood at 48.7 nM.

Consider `N#Cc1ccc(F)cc1COc1ccc2nc(C(=O)N3CCC(C#N)(c4ccccc4)CC3)cc(C(=O)N3CCCCC3)c2c1` [Example 44, 1-(6-((2-cyano-5-fluoro-benzyl)oxy)-4-(piperidine-1-carbonyl)quinoline-2-carbon-yl)-4-phenylpiperidine-4-carbonitrile], for which the EC50 is 44.6 nM. The figure for `COc1ccc(COc2ccc3nc(C(=O)N4CCC(C#N)(c5ccccc5)CC4)cc(C(=O)N4CCCCC4)c3c2)cc1F` [Example 39, 1-(6-((3-fluoro-4-methoxy-benzyl)oxy)-4-(piperidine-1-carbonyl)quinoline-2-carbon-yl)-4-phenylpiperidine-4-carbonitrile] is 31.8 nM; for `N#CC1(c2ccccc2)CCN(C(=O)c2cc(C(=O)N3CCCCC3)c3cc(OCc4ccc(F)cc4[N+](=O)[O-])ccc3n2)CC1` [Example 28, 1-(6-((4-fluoro-2-nitro-benzyl)oxy)-4-(piperidine-1-carbonyl)quinoline-2-carbon-yl)-4-phenylpiperidine-4-carbonitrile] it is 38.9 nM. As for `N#CC1(c2ccccc2)CCN(C(=O)c2cc(C(=O)N3CCCCC3)c3cc(OCc4ccc(F)cc4F)ccc3n2)CC1` [Example 43, 1-(6-((2,4-difluorobenzyl)-oxy)-4-(piperidine-1-carbon-yl)quinoline-2-carbonyl)-4-phenylpiperidine-4-carbonitrile], the EC50 was 38.5 nM.

For `Cc1c(COc2ccc3nc(C(=O)N4CCC(C#N)(n5cccn5)CC4)cc(C(=O)N4CCCCC4)c3c2)ccc2c1COC2=O` [Example 1, 1-(6-((4-methyl-1-oxo-1,3-dihydroisobenzofuran-5-yl)methoxy)-4-(piperidine-1-carbonyl)quinoline-2-carbonyl)-4-(1H-pyrazol-1-yl)piperidine-4-carbonitrile], the EC50 stood at 21.8 nM.

In the case of `N#CC1(c2ccccc2)CCN(C(=O)c2cc(C(=O)N3CCCCC3)c3cc(OCc4nc5ccccc5s4)ccc3n2)CC1` [Example 60, 1-(6-(benzo[d]thiazol-2-yl-methoxy)-4-(piperidine-1-carbonyl)quinoline-2-car-onyl)-4-phenylpiperidine-4-carbonitrile], the EC50 amounted to 37.7 nM. In the case of `O=C1OCc2ccc(COc3ccc4nc(C(=O)N5CCC(n6cccn6)CC5)cc(C(=O)N5CCCCC5)c4c3)cc21` [Example 20, 6-(((2-(4-(1H-pyrazol-1-yl)-piperidine-1-carbonyl)-4-(piperidine-1-carbonyl)-quinolin-6-yl)oxy)methyl)-isobenzofuran-1(3H)-one], the EC50 was determined as 35.8 nM.
